Earlier results as cited in patent US10449194B2 (Tocagen Inc., priority 2008, dated 2019).
Like-named read-outs stand apart in the source and are kept apart here.

[1] = patients with normal renal function

Time to peak serum concentrations (2 gram oral dose, normal subjects): ≤ 2 h
Average half-life (nephrectomized or anuric patients): 85 h
Bioavailability (absorption) after oral administration (oral vs intravenous AUC of serum concentrations): 76-89%
Half-life in the serum [1]: 2 to 5 h
Time to peak concentrations in serum and other body fluids [1]: 1 to 2 h
Half-life in the serum (patients with severe renal insufficiency): up to 85 h
Compound: Nc1nc(=O)[nH]cc1F [Example 5-FC, 5-fluorocytosine]
Serum level above which toxicity generally occurs (Vermes et al. 2000): > 100 µg/mL
